In series [1] the test system is mouse model of rheumatoid arthritis. The conditions noted are these: in vivo; cited from earlier work.
For series [2], the system named is model of systemic lupus erythematosis. The conditions noted are these: in vivo; cited from earlier work.
Series [3] relates to indolent B cell malignancies. The conditions noted are these: Phase I, subset of patients with indolent B cell malignancies; cited from earlier work.
The next series has as its target PI3K (p120γ) (h) (Homo sapiens (Human), UniProt P48736). Nature of the series: PI3K (p120γ) (h) non-radioactive HTRF kinase assay. The class given is biochemical. Here is the method: (§1) PI3K (p120γ) (h) is incubated in assay buffer containing 10 μM phosphatidylinositol-4, 5-bisphosphate and MgATP (concentration as required). The reaction is initiated by the addition of the MgATP mix. After incubation for 30 minutes at room temperature, the reaction is stopped by the addition of stop solution containing EDTA and biotinylated phosphatidylinositol-3,4,5-trisphosphate. Finally, detection buffer is added, which contains europium-labelled anti-GST monoclonal antibody, GST-tagged GRP1 PH domain and streptavidin-allophycocyanin. The plate is then read in timeresolved fluorescence mode and the homogenous time-resolved fluorescence (HTRF) signal is determined according to the formula HTRF=10000×(Em665 nm/Em620 nm).
(§2) The kinase assays described herein were performed at Millipore UK Ltd, Dundee Technology Park, Dundee DD2 1SW, UK.
On the technique in general: TR-FRET usually uses a lanthanide donor and a delayed reading to cut background.

The next series concerns the target PI3K (p110α/p85α) (h) (Homo sapiens (Human), UniProt P42336). Nature of the series: PI3K (p110α/p85α) (h) non-radioactive HTRF kinase assay. The class given is biochemical. Here is the method: as §1, with “(p110α/p85α)” for “(p120γ)”, “phosphatidylinositol 4,5-bisphosphate” for “phosphatidylinositol-4, 5-bisphosphate”, “ATP solution.” for “MgATP mix.”, “streptavidin allophycocyanin.” for “streptavidin-allophycocyanin.”
as §2

In a further series the target is hERG channels (Homo sapiens (Human), UniProt Q12809). Nature of the series: hERG assay, automated QPatch procedure. It is filed as cell-based. An excerpt:
Only stable cells with recording parameters above threshold were allowed to enter the drug application procedure.
Background: Block of hERG is tested as a sign of cardiac risk.

The test system of the next series is PI3K-δ (RAJI). Briefly: p-AKT HTRF assay, PI3K-δ in RAJI cells stimulated with anti-IgM. It is filed as cell-based. Conditions: anti-human IgM stimulation. Here is the method: (§3) Cells were incubated at 37° C. in a 5% CO2 atmosphere overnight. […] Medium was then aspirated and 50 μL/well of lysis buffer was added. Plates were shaked for 45 minutes at room temperature and then 16 ul/well of lysate was transferred to 384-well plate. 4 ul/well of premixed antibody was added to the wells. The plate was centrifuged at 1000 rpm at RT for 1 minute and then incubated for 4 hours at 22° C., and Phospho-AKT (ser473) Kit was used for detection.

For a further series, the system named is PI3K-β (786-O). Briefly: p-AKT HTRF assay, PI3K-β in 786-O cells. The class given is cell-based. The conditions noted are these: Homo sapiens, 786-0. Here is the method:
as §3

The next series has as its target PI3K (p110δ/p85α) (h) (Homo sapiens (Human), UniProt O00329). Briefly: PI3K (p110δ/p85α) (h) non-radioactive HTRF kinase assay. The class given is biochemical. Here is the method:
as §1, with “(p110δ/p85α)” for “(p120γ)”
as §2

The subject of another series is PI3K-γ (RAW264.7). Briefly: p-AKT HTRF assay, PI3K-γ in RAW 264.7 cells stimulated with C5a. Conditions: Mus musculus; RAW264.7 cells, C5a stimulation. It is filed as cell-based, murine. Here is the method:
as §3

A further series relates to PI3K-α (SKOV3). Nature of the series: p-AKT HTRF assay, PI3K-α in SKOV3 cells. Conditions: Homo sapiens, SK-OV-3. It is filed as cell-based. Here is the method: as §3
In the next series the target is PI3K (p110β/p85α) (h) (Homo sapiens (Human), UniProt P42338). Briefly: PI3K (p110β/p85α) (h) non-radioactive HTRF kinase assay. It is filed as biochemical. Here is the method: as §1, with “(p110β/p85α)” for “(p120γ)”, “phosphatidylinositol-4,5-bisphosphate” for “phosphatidylinositol-4, 5-bisphosphate”
as §2

SMILES strings stand for the structures. A value given as a limit tells only on which side of the number the result lay.

Chain of PI3K (p110α/p85α) (h) (P42336 whole entry): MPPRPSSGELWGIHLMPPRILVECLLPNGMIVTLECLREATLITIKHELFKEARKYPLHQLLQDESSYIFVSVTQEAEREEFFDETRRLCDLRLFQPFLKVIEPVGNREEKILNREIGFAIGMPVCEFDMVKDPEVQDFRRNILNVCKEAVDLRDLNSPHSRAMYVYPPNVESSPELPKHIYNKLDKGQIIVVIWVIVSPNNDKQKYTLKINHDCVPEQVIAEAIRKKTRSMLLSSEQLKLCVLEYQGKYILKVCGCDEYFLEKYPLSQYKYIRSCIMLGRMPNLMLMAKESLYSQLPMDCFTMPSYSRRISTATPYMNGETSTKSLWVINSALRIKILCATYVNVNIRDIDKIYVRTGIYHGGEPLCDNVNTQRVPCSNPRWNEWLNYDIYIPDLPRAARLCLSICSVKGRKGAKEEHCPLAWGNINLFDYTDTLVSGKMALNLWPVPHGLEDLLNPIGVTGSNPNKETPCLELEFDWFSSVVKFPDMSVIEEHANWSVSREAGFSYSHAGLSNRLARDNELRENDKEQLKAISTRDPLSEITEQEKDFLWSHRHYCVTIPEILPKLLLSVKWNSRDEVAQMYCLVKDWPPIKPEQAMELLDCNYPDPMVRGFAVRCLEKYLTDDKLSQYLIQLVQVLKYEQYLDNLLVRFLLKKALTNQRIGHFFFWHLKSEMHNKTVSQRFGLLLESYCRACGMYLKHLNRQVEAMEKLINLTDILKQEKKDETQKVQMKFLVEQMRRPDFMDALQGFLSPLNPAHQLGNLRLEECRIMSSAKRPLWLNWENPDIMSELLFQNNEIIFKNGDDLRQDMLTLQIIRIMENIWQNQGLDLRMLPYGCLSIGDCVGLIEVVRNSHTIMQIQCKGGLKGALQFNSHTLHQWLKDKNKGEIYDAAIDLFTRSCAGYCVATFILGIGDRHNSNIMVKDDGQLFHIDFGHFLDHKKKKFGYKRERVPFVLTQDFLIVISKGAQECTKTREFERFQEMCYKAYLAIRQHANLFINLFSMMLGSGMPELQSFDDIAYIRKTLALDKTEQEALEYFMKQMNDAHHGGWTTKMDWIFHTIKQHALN
Chain of PI3K (p110α/p85α) (h) (P27986 whole entry partner): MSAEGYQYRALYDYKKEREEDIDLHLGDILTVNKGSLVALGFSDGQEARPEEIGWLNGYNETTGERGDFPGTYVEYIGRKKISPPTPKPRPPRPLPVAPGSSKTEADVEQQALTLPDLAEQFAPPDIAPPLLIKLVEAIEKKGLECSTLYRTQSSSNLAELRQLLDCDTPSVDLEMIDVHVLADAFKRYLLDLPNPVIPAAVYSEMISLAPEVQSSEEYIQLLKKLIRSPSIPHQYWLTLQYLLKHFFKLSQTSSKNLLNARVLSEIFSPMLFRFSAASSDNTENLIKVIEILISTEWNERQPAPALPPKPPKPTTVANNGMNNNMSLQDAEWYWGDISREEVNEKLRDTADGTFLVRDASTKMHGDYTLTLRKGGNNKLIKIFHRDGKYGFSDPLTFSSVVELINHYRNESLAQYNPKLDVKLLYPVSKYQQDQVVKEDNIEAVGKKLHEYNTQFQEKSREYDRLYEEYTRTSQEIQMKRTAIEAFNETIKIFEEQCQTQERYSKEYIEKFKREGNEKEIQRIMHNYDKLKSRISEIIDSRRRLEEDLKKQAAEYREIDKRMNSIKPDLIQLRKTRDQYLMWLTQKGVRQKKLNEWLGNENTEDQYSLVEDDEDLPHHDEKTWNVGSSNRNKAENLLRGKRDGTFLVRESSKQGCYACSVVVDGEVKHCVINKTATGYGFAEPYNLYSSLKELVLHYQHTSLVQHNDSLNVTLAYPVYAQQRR
Chain of PI3K (p110δ/p85α) (h) (O00329 whole entry): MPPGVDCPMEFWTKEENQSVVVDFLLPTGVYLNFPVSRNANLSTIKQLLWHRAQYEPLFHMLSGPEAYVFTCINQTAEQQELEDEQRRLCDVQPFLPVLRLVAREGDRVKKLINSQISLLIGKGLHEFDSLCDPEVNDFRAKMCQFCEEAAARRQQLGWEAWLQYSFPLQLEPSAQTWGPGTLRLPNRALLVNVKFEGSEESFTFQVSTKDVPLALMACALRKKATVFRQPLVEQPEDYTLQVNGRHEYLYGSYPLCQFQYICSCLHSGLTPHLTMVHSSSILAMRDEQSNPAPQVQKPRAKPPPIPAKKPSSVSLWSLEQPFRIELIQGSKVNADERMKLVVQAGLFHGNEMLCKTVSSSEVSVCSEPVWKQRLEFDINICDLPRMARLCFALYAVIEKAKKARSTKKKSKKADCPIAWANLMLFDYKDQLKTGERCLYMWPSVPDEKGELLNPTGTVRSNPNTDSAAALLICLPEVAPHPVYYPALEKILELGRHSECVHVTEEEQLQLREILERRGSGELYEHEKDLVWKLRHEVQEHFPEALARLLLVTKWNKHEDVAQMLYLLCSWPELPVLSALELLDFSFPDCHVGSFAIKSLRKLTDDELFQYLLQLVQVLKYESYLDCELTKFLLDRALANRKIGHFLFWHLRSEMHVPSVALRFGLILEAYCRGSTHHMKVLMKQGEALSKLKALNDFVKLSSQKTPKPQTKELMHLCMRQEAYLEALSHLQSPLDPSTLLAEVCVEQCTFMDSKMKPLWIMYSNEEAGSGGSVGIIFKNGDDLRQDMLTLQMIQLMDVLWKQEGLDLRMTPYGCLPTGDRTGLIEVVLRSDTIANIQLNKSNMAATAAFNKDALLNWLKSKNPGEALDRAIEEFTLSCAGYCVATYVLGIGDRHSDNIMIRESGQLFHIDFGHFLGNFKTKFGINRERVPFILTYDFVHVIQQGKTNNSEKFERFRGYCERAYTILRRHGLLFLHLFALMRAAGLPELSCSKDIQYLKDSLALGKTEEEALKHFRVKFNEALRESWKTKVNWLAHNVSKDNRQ
Chain of PI3K (p110δ/p85α) (h) (P27986 whole entry partner): as the sequence (P27986 whole entry partner) above
Chain of PI3K (p120γ) (h) (P48736 whole entry, the tested form may be a part): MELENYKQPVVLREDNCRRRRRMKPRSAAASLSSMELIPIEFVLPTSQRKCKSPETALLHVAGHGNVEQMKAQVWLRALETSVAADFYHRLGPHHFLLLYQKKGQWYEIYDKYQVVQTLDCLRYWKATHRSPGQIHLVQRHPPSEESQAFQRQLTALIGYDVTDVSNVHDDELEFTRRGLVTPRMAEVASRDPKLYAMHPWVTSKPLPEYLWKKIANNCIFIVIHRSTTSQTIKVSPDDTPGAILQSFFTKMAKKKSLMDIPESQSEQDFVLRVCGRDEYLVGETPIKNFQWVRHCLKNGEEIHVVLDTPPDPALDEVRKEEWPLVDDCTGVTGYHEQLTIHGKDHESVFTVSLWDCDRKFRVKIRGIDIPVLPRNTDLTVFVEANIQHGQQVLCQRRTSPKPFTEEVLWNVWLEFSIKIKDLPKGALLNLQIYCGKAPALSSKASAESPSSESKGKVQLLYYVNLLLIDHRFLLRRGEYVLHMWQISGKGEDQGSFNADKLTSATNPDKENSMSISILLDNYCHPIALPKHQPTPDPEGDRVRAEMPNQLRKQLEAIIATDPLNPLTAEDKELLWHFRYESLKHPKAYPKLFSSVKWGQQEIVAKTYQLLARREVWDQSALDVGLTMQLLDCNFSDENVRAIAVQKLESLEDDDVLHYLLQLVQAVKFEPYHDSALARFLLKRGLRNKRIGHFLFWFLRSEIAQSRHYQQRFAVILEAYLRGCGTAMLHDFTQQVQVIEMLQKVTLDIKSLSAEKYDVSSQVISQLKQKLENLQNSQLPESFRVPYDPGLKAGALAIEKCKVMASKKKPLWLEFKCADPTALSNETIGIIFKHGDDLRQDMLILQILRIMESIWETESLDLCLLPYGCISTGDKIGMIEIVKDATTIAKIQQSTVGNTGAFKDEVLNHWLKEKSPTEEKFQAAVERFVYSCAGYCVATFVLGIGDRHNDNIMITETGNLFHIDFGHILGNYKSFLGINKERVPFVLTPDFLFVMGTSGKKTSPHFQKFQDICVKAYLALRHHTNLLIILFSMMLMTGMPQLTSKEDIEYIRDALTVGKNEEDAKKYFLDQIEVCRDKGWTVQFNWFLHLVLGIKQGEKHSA
Chain of PI3K (p110β/p85α) (h) (P42338 whole entry): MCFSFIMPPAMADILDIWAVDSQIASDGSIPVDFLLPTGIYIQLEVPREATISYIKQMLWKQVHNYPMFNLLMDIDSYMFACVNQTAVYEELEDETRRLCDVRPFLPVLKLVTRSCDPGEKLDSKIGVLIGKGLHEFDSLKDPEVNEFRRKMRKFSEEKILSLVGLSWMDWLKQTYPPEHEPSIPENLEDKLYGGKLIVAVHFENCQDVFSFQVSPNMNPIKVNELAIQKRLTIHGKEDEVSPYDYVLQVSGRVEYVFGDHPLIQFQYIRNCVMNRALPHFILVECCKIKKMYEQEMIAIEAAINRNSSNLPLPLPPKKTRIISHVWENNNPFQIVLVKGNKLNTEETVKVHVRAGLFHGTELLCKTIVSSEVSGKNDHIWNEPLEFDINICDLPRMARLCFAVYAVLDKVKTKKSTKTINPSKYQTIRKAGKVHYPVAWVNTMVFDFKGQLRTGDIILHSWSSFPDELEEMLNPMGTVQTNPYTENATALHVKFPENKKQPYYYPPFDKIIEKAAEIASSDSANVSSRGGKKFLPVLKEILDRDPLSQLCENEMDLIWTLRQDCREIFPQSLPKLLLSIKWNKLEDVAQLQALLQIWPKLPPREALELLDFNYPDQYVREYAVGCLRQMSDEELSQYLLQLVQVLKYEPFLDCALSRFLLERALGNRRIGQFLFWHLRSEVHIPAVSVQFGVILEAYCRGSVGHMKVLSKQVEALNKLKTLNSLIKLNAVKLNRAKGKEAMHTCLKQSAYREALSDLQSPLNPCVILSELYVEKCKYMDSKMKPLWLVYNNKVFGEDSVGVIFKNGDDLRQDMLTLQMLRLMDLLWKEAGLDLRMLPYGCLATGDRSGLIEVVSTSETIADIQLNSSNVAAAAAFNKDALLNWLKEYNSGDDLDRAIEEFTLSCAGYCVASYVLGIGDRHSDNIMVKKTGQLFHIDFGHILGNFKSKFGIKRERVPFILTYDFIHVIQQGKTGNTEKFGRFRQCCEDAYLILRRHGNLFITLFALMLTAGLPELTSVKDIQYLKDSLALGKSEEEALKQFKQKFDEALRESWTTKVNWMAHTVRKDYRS
Chain of PI3K (p110β/p85α) (h) (P27986 whole entry partner): as the sequence (P27986 whole entry partner) above

Regarding `O=C1NC(=O)/C(=C\c2ccc3nccnc3c2)S1` [AS 605240], in [1], the “efficacy in a mouse model of rheumatoid arthritis” value is given as “efficacious”. In [2], the “effect on onset of disease in a model of systemic lupus erythematosis” value was “delay onset of disease”.

For the compound `CC[C@H](Nc1ncnc2[nH]cnc12)c1nc2cccc(F)c2c(=O)n1-c1ccccc1` [CAL-101, idelalisib], the clinical response entry in series [3] was “dramatic and durable responses”.

On to `CC#Cc1cccc2cc([C@H](C)Nc3ncnc(N)c3-c3nc(C)no3)n(-c3ccccc3)c(=O)c12` [Example 16, (S)-3-(1-((6-amino-5-(3-methyl-1,2,4-oxadiazol-5-yl)pyrimidin-4-yl)amino)ethyl)-2-phenyl-8-(prop-1-yn-1-yl)isoquinolin-1(2H)-one], for which the concentration for half-maximal inhibition (IC50) at PI3K (p120γ) (h) was 26 nM; at PI3K (p110α/p85α) (h), 121 nM; on hERG channels, above 30000 nM; in the series with PI3K-δ (RAJI), 0.52 nM; with PI3K-β (786-O) it was 34.4 nM; at PI3K (p110δ/p85α) (h), 10 nM. Besides, the IC50 in the series on PI3K-γ (RAW264.7) amounted to 22.6 nM; in the series on PI3K-α (SKOV3), 305 nM; on PI3K (p110β/p85α) (h) it was 61 nM.

One may read the IC50 as the midpoint of a concentration-inhibition curve.
